Test results as given in patent US20230033224A1, “CICLESONIDE FOR AMELIORATING QUALITY OF LIFE (QOL) IN EQUINES” (Boehringer Ingelheim Vetmedica GmbH, priority 2020, published 2023).

Test system: client-owned horses
Test: Owner assessment of change in quality of life (QOL) in a randomized, double-blinded, placebo-controlled clinical study
Assay type: in vivo, horse
Text: The amelioration of the QOL in equines can be measured by an assessment, which can be performed for example by the owner or the veterinarian or by an animal care taker or by any other person, preferably by the owner. The owners of the horses are asked to assess the quality of life of their horses over a certain period of time, e.g. several days, such as 10, 14 or 21 days, compared to a reference time point, e.g. day 0. For assessment of QOL the owner is asked to consider certain QOL parameters such as attitude, energy level, human interactions, general behavior using a rating scheme. This assessment preferably relates to a certain period of time such as for example the last 24 hours in comparison to a previous point in time for example day 0. One possible rating scheme is to ask whether QOL has improved, stayed the same or worsened compared to day 0.
The study is conducted as a multicenter prospective, randomized, double-blinded, placebo-controlled clinical study with parallel group design according to Good Clinical Practice (GCP) guidelines with client-owned horses.
Horses are examined before (Day 0) and at the end of treatment with the study drug (Day 10±1) by the study investigators. Physical examination, efficacy and QOL assessment, as well as blood sample collection is performed during the visits. The owners of included horses are also contacted by telephone on Day 5. […]

CC(C)C(=O)OCC(=O)[C@@]12O[C@H](C3CCCCC3)OC1CC1C3CCC4=CC(=O)C=C[C@]4(C)C3[C@@H](O)C[C@@]12C (stereo partly drawn) [ciclosenide, (1 ip,16a)-16,17-[[(R)-Cyclohexylmethylene]bis(oxy)]-11-hydroxy-21-(2-methyl-1-oxopropoxy)pregna-1,4-diene-3,20-dione]
percentage of owners acknowledging an improvement in their horse's quality of life compared to Day 0 (after 10(±1) days of treatment, 8 actuations twice daily for 5 days, then 12 actuations once daily for 5 days): 69.33% | percentage of owners reporting that the quality of life of their horse improved compared to Day 0 (after five days of treatment, inhaled via EquiHaler, 8 actuations (343 μg each) twice daily): 60.19%
